Assay results published in publication PMC5607081 (2017).

Test system: target DNA; 23-bp duplex DNA oligo (DNA, duplex) GCGAATAAGAGGAAGTGAAACCG/CGGTTTCACTTCCTCTTATTCGC
Experiment: fluorescence polarization titration
Settings: 0.20 M NaCl; 10 mM TrisHCl, pH 7.5, 25°C, H2O, no osmolyte; apparent

N=C(N)c1ccc2[nH]c(-c3ccc(-c4nc5cc(C(=N)N)ccc5[nH]4)[se]3)nc2c1
−log (Kd, M): 9.90 ± 0.12 −log M
